In patent US11639343B2, “Compounds targeting and degrading BCR-ABL protein and its antitumor application” (ShanghaiTech University, priority 2019, dated 2023):

What was measured:
[1] = target: c-ABL protein (Homo sapiens, UniProt P00519); assay: Western blot degradation of c-ABL in K562 cells; format: cell-based; parameters: Western blot was used to detect the expression of BCR-ABL and c-ABL protein in K562 cells; endogenous in cells; host or cells: K562; settings: 16 hours, 1 nM-10 μM
Method: (§1) (1) Cell seed: K562 cells were added to the 24 well plates, with a cell density of 3×10^5/ml and a total volume of 1.5 ml; Five concentration gradients, 1 nm, 10 nm, 100 nm, 1 μM, and 10 μM, were respectively set for PROTAD series compounds and comparative examples compounds (Dasa-6-2-2-6-VHL, Dasa-6-2-6-CRBN). […] After 16 hours of drug treatment, the cells were collected in 1.5 ml ep tube, centrifuged at 3000 rpm for 3 minutes, and then added 30 μL PBS and 30 ul 2×SDS to cell precipitated, lysate Heat at 100° C. for 5 minutes, then place on ice for 5 minutes, centrifuged at 10000 rpm for 5 minutes, and take the supernatant as the total protein extracted. The protein concentration was determined by the Bradford method. After each sample was at the same concentration, bromophenol blue was added as the sample indicator.
(§2) (2) Electrophoresis: the starting voltage of the BioRad electrophoresis instrument was 80V, and as the dye enters the separation gel, the voltage was adjusted to 120V;
(§3) (3) Film transfer: prepare filter paper and nitrocellulose membrane with the corresponding size of the gel, filter paper, and NC film were soaked in transfer electrophoresis buffer.
(§4) DC50 (concentration required to degrade protein by half) were calculated based on the intensity from western blot, and data were analyzed via Prism GraphPad with non-linear regression.

[2] = test system: K562 (BCR-ABL+) cells; assay: CCK-8 proliferation inhibition, K562 cells; format: cell-based, human; settings: Homo sapiens, K562, 48 h, CCK-8, 48 hours of drug treatment; read-out: Proliferative inhibitory activity (IC50, nM) K562 (BCR-ABL+);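 further: Ten-point threefold dilution series starting at 10 µM, absorbance at 450 nm after 2 h with CCK-8, DMSO as negative control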
[3] = target: BCR-ABL protein (Homo sapiens, UniProt P00519); assay: Western blot degradation of BCR-ABL in K562 cells; format: cell-based; parameters: Western blot was used to detect the expression of BCR-ABL and c-ABL protein in K562 cells; BCR (fusion partner, P11274); endogenous in cells; host or cells: K562; the other entry of the earlier key: BCR (P11274, Breakpoint cluster region protein); settings: 16 hours, 1 nM-10 μM
BCR-ABL protein, sequence (P00519 with tags, fused parts or gaps): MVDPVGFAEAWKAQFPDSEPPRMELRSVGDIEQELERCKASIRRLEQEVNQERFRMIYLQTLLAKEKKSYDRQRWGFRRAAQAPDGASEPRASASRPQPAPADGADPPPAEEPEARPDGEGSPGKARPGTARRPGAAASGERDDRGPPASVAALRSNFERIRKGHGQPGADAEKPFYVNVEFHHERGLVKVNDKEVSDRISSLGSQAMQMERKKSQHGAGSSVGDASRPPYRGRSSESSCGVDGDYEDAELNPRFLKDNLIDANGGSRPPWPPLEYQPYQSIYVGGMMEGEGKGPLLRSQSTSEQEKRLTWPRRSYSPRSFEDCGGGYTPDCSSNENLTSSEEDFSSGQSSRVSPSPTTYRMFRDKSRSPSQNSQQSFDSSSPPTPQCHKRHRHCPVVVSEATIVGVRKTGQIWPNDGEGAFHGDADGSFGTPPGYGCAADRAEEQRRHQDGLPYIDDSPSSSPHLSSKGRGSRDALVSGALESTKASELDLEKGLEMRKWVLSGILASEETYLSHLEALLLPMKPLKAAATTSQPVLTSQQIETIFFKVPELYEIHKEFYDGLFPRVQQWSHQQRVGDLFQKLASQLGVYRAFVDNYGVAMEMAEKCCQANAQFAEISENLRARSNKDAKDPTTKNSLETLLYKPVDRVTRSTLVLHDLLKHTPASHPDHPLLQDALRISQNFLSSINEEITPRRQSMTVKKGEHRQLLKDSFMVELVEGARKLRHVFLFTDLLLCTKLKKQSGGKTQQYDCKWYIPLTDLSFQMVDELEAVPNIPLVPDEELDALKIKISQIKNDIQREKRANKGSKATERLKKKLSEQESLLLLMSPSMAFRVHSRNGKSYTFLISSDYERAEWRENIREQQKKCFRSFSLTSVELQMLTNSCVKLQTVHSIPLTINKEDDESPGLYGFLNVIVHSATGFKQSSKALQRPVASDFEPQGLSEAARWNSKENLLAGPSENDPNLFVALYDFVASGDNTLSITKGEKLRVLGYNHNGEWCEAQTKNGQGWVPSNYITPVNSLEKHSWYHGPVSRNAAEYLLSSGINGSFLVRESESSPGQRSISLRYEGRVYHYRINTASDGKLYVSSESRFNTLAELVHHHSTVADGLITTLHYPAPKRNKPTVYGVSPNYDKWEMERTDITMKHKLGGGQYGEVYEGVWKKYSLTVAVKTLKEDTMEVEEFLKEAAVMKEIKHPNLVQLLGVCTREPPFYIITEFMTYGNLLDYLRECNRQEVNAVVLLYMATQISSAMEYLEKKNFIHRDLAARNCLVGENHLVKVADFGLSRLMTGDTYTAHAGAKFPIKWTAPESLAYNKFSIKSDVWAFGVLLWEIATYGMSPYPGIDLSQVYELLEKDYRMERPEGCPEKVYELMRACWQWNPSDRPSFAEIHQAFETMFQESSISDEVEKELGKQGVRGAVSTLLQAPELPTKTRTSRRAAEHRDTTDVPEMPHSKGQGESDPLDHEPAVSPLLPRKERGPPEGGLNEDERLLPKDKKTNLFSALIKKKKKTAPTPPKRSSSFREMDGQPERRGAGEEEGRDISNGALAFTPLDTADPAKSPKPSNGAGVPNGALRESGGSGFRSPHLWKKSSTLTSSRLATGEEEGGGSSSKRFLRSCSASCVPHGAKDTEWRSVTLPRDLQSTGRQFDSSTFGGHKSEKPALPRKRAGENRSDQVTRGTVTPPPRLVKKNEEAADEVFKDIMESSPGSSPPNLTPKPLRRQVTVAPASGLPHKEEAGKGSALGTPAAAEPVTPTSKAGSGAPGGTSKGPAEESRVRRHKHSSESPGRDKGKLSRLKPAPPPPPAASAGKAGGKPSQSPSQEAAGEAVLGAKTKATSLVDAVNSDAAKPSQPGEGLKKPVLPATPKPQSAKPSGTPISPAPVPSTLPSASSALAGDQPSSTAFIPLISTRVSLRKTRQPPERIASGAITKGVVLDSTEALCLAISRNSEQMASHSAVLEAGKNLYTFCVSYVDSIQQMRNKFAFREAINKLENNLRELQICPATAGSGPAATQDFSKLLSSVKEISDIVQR
Method: as §1, §2, §3, §4

[4] = test system: HEK293 (BCR-ABL-) cells; assay: CCK-8 proliferation inhibition, HEK293 cells; settings: Homo sapiens, HEK293, 48 h, read-out: Proliferative inhibitory activity (IC50, nM) HEK293 (BCR-ABL-);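 further: Ten-point threefold dilution series starting at 10 µM, CCK-8 absorbance at 450 nm read after 2 h reagent incubation, DMSO-treated cells as negative control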
[5] = test system: U937 (BCR-ABL-) cells; assay: CCK-8 proliferation inhibition, U937 cells; format: cell-based, human; settings: Homo sapiens, U-937; CCK-8, 48 hours of drug treatment, highest concentration 10 μM; read-out: Proliferative inhibitory activity (IC50, nM) U937 (BCR-ABL-);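 further: Ten-point threefold dilution series, absorbance at 450 nm after 2 h with CCK-8 reagent, DMSO as negative control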

c-ABL protein, sequence (P00519 whole entry): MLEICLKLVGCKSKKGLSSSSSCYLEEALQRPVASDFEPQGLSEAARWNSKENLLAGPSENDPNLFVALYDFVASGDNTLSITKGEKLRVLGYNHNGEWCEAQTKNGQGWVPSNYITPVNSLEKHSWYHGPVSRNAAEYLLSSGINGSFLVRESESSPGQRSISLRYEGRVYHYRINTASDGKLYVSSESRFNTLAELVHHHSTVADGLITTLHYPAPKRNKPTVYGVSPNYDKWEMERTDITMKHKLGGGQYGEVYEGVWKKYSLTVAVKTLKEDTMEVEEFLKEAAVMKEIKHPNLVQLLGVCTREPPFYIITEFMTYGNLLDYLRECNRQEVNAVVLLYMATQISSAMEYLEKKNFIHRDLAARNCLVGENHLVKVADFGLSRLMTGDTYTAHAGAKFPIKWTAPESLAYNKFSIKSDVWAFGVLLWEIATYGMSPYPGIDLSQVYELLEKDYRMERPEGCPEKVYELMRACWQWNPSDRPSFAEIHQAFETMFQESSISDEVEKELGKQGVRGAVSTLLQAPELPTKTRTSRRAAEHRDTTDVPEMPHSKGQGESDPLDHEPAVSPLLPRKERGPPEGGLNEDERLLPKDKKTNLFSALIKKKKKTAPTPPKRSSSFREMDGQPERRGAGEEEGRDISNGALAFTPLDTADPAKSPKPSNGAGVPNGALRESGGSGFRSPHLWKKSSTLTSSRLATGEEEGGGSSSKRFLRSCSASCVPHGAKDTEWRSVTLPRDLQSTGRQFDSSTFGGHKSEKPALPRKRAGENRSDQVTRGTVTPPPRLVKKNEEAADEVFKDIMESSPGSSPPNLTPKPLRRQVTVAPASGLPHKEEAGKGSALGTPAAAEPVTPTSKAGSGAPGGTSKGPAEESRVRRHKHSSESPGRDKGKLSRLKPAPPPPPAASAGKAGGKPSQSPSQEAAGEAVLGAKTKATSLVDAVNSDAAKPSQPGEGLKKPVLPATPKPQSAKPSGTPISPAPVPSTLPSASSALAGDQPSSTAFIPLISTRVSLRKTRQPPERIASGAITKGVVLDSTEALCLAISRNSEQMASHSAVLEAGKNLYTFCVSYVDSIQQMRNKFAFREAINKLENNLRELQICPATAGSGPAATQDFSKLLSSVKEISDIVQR

| SMILES | DC50 [1] [nM] | IC50 [2] [nM] | DC50 [3] [nM] | IC50 [5] [nM] | IC50 [4] [nM] |
| --- | --- | --- | --- | --- | --- |
| Cc1nc(Nc2ncc(C(=O)Nc3c(C)cccc3Cl)s2)cc(N2CCN(C(=O)CCCC(=O)N[C@H](C(=O)N3C[C@H](O)C[C@H]3C(=O)NCc3ccc(-c4scnc4C)cc3)C(C)(C)C)CC2)n1 [SIAIS151175, N-(2-chloro-6-methylphenyl)-2-((6-(4-(5-(((S)-1-((2S,4R)-4-hydroxy-2-((4-(4-methylthiazol-5-yl)benzyl)carbamoyl)pyrrolidin-1-yl)-3,3-dimethyl-1-oxobutan-2-yl)amino)-5-oxopentanoyl)piperazin-1-yl)-2-methylpyrimidin-4-yl)amino)thiazole-5-carboxamide] | 100 to 1000 | 87 | 10 to 100 | > 10000 | 3890 |
| Cc1nc(Nc2ncc(C(=O)Nc3c(C)cccc3Cl)s2)cc(N2CCN(C(=O)CCC(=O)N[C@H](C(=O)N3C[C@H](O)C[C@H]3C(=O)NCc3ccc(-c4scnc4C)cc3)C(C)(C)C)CC2)n1 [SIAIS151174, N-(2-chloro-6-methylphenyl)-2-((6-(4-(4-(((S)-1-((2S,4R)-4-hydroxy-2-((4-(4-methylthiazol-5-yl)benzyl)carbamoyl)pyrrolidin-1-yl)-3,3-dimethyl-1-oxobutan-2-yl)amino)-4-oxobutanoyl)piperazin-1-yl)-2-methylpyrimidin-4-yl)amino)thiazole-5-carboxamide] | 100 to 1000 | 78 | 100 to 1000 | > 10000 | > 10000 |
| Cc1nc(Nc2ncc(C(=O)Nc3c(C)cccc3Cl)s2)cc(N2CCN(C(=O)CCC(=O)Nc3cccc4c3CN(C3CCC(=O)NC3=O)C4=O)CC2)n1 (centres unmarked) [SIAIS164109, N-(2-chloro-6-methylphenyl)-2-((6-(4-(4-((2-(2,6-dioxopiperidin-3-yl)-1-oxoisoindolin-4-yl)amino)-4-oxobutanoyl)piperazin-1-yl)-2-methylpyrimidin-4-yl)amino)thiazole-5-carboxamide] | 100 to 1000 | 7.08 | 100 to 1000 | > 10000 | > 10000 |
| Cc1nc(Nc2ncc(C(=O)Nc3c(C)cccc3Cl)s2)cc(N2CCN(C(=O)CCOCCOCCOCCOCCC(=O)N[C@H](C(=O)N3C[C@H](O)C[C@H]3C(=O)NCc3ccc(-c4scnc4C)cc3)C(C)(C)C)CC2)n1 [SIAIS151078, N-(2-chloro-6-methylphenyl)-2-((6-(4-((S)-18-((2S,4R)-4-hydroxy-2-((4-(4-methylthiazol-5-yl)benzyl)carbamoyl)pyrrolidine-1-carbonyl)-19,19-dimethyl-16-oxo-4,7,10,13-tetraoxa-17-azaicosanoyl)piperazin-1-yl)-2-methylpyrimidin-4-yl)amino)thiazole-5-carboxamide] | > 1000 | 2160 | 100 to 1000 | > 10000 | > 10000 |
| Cc1nc(Nc2ncc(C(=O)Nc3c(C)cccc3Cl)s2)cc(N2CCN(C(=O)CNc3cccc4c3C(=O)N(C3CCC(=O)NC3=O)C4=O)CC2)n1 (centres unmarked) [SIAIS151072, N-(2-chloro-6-methylphenyl)-2-((6-(4-((2-(2,6-dioxopiperidin-3-yl)-1,3-dioxoisoindolin-4-yl)glycyl)piperazin-1-yl)-2-methylpyrimidin-4-yl)amino)thiazole-5-carboxamide] | 1 to 10 | 1.22 | < 1 | > 10000 | > 10000 |
| Cc1nc(Nc2ncc(C(=O)Nc3c(C)cccc3Cl)s2)cc(N2CCN(C(=O)CCOCCOCCOCCNc3cccc4c3C(=O)N(C3CCC(=O)NC3=O)C4=O)CC2)n1 (centres unmarked) [SIAIS151067, N-(2-chloro-6-methylphenyl)-2-((6-(4-(3-(2-(2-(2-((2-(2,6-dioxopiperidin-3-yl)-1,3-dioxoisoindolin-4-yl)amino)ethoxy)ethoxy)ethoxy)propanoyl)piperazin-1-yl)-2-methylpyrimidin-4-yl)amino)thiazole-5-carboxamide] | 10 to 100 | 14.8 | 1 to 10 | > 10000 | > 10000 |
| Cc1nc(Nc2ncc(C(=O)Nc3c(C)cccc3Cl)s2)cc(N2CCN(C(=O)CCc3cccc4c3C(=O)N(C3CCC(=O)NC3=O)C4=O)CC2)n1 (centres unmarked) [SIAIS172150, N-(2-chloro-6-methylphenyl)-2-((6-(4-(3-(2-(2,6-dioxopiperidin-3-yl)-1,3-dioxoisoindolin-4-yl)propanoyl)piperazin-1-yl)-2-methylpyrimidin-4-yl)amino)thiazole-5-carboxamide] | 10 to 100 | 2.84 | 10 to 100 | > 10000 | > 10000 |
| Cc1nc(Nc2ncc(C(=O)Nc3c(C)cccc3Cl)s2)cc(N2CCN(C(=O)CCOCCOCCNc3cccc4c3C(=O)N(C3CCC(=O)NC3=O)C4=O)CC2)n1 (centres unmarked) [SIAIS151064, N-(2-chloro-6-methylphenyl)-2-((6-(4-(3-(2-(2-((2-(2,6-dioxopiperidin-3-yl)-1,3-dioxoisoindolin-4-yl)amino)ethoxy)ethoxy)propanoyl)piperazin-1-yl)-2-methylpyrimidin-4-yl)amino)thiazole-5-carboxamide] | 10 to 100 | 8.05 | 1 to 10 | > 10000 | > 10000 |

The next lines start with results.

| DC50 [1] [nM] | IC50 [2] [nM] | DC50 [3] [nM] | IC50 [5] [nM] | SMILES | IC50 [4] [nM] |
| --- | --- | --- | --- | --- | --- |
| 10 to 100 | 4650 | 10 to 100 | > 10000 | COc1cc(Nc2c(C#N)cnc3cc(OCCCN4CCN(C(=O)CCOCCOCCOCCOCCNc5cccc6c5C(=O)N(C5CCC(=O)NC5=O)C6=O)CC4)c(OC)cc23)c(Cl)cc1Cl (centres unmarked) [SIAIS151160, 4-((2,4-dichloro-5-methoxyphenyl)amino)-7-(3-(4-(1-((2-(2,6-dioxopiperidin-3-yl)-1,3-dioxoisoindolin-4-yl)amino)-3,6,9,12-tetraoxapentadecan-15-oyl)piperazin-1-yl)propoxy)-6-methoxyquinoline-3-carbonitrile] | > 10000 |
| 10 to 100 | 126 | 10 to 100 | > 10000 | COc1cc(Nc2c(C#N)cnc3cc(OCCCN4CCN(C(=O)CCCCNc5cccc6c5C(=O)N(C5CCC(=O)NC5=O)C6=O)CC4)c(OC)cc23)c(Cl)cc1Cl (centres unmarked) [SIAIS151163, 4-((2,4-dichloro-5-methoxyphenyl)amino)-7-(3-(4-(5-((2-(2,6-dioxopiperidin-3-yl)-1,3-dioxoisoindolin-4-yl)amino)pentanoyl)piperazin-1-yl)propoxy)-6-methoxyquinoline-3-carbonitrile] | > 10000 |
| 100 to 1000 | 7260 | 100 to 1000 | > 10000 | COc1cc(Nc2c(C#N)cnc3cc(OCCCN4CCN(C(=O)CCOCCOCCOCCOCCOCCNc5cccc6c5C(=O)N(C5CCC(=O)NC5=O)C6=O)CC4)c(OC)cc23)c(Cl)cc1Cl (centres unmarked) [SIAIS151161, 4-((2,4-dichloro-5-methoxyphenyl)amino)-7-(3-(4-(1-((2-(2,6-dioxopiperidin-3-yl)-1,3-dioxoisoindolin-4-yl)amino)-3,6,9,12,15-pentaoxaoctadecan-18-oyl)piperazin-1-yl)propoxy)-6-methoxyquinoline-3-carbonitrile] | > 10000 |
| 10 to 100 | 4260 | 10 to 100 | > 10000 | COc1cc(Nc2c(C#N)cnc3cc(OCCCN4CCN(C(=O)CCOCCOCCOCCNc5cccc6c5C(=O)N(C5CCC(=O)NC5=O)C6=O)CC4)c(OC)cc23)c(Cl)cc1Cl (centres unmarked) [SIAIS151159, 4-((2,4-dichloro-5-methoxyphenyl)amino)-7-(3-(4-(3-(2-(2-(2-((2-(2,6-dioxopiperidin-3-yl)-1,3-dioxoisoindolin-4-yl)amino)ethoxy)ethoxy)ethoxy)propanoyl)piperazin-1-yl)propoxy)-6-methoxyquinoline-3-carbonitrile] | > 10000 |
| 10 to 100 | 31.9 | 1 to 10 | > 10000 | Cc1nc(Nc2ncc(C(=O)Nc3c(C)cccc3Cl)s2)cc(N2CCN(C(=O)CCOCCOCCOCCOCCOCCNc3cccc4c3C(=O)N(C3CCC(=O)NC3=O)C4=O)CC2)n1 (centres unmarked) [SIAIS151069, N-(2-chloro-6-methylphenyl)-2-((6-(4-(1-((2-(2,6-dioxopiperidin-3-yl)-1,3-dioxoisoindolin-4-yl)amino)-3,6,9,12,15-pentaoxaoctadecan-18-oyl)piperazin-1-yl)-2-methylpyrimidin-4-yl)amino)thiazole-5-carboxamide] | > 10000 |
